Measured values published in PMC8959600 (eLife, 2022).
Converted amounts (≈) assume the structure as drawn.

How the values were obtained:
Shigella flexneri 2457T = assay: Resazurin growth inhibition, dose response (IC50/IC90) in Müller Hinton medium; format: cell-based
Description: We developed a high-throughput screening (HTS) method to identify compounds that could inhibit the growth of Shigella flexneri 2457T in Müller Hinton medium (Sigma Aldrich, UK). We adapted a resazurin reduction protocol from Franzblau et al. as surrogate readout for bacterial viability because it provided a stable signal, a low interference level, and was cost effective ([Franzblau et al., 1998]). Prior to the day of experimentation, one colony was used to inoculate 50 mL Mueller Hinton medium, and the culture was incubated overnight at 37 °C. The next day, 500 μL of the bacterial culture were inoculated into 50 mL fresh Mueller Hinton medium and bacterial growth was measured periodically at 600 nm. When the culture reached OD = 0.4–0.6, the inoculum was diluted to 1 × 10^6 CFU/mL; this bacterial suspension was added to compound pre-dispensed plates for screening.
The assay was performed in 1536-well polystyrene assay plates (HiBase, μClear, Greiner Bio‐One) and used to screen ~1.7 million compounds from (a) GSK naïve chemical diversity, (b) GSK antibacterial programs, and (c) marketed antimicrobial agents. All commercially available chemicals were purchased from either Sigma Aldrich, UK, AK Scientific, or Fischer Chemicals. The GSK compound screening set was sub-selected from the 8 million compound GSK collection using the principles described by Harper and co-workers ([Harper et al., 2004]). The process to generate the structural filters to remove compounds bearing undesirable/reactive chemotypes and/or non-developable physicochemical properties has been described previously by [Chakravorty et al., 2018]. […]. The set of marketed antibacterial agents included most commercial antimicrobial agents.
For screening, plates were prepared by dispensing 50 nl of compound from master plates at 1 mM in each well using a LabCyte Echo system. The final assay volume was 5 μl and the final compound concentration was 10 µM. The 11th and 12th columns were growth controls containing 50 nL of DMSO. The 34th and 35th columns contained 50 nL of Moxifloxacin at 20 μM as negative growth controls. Five µl of bacterial inoculum was dispensed into compound pre-dispensed plates using a Multidrop Combi dispenser (Thermo Scientific). Plates were agitated for 10 s to ensure mixing and incubated at 37 °C overnight (16–17 hr). Following overnight culture, 2 µl resazurin solution (Resazurin tablets for milk testing, BDH) was added to each well and incubated at room temperature in the dark for 3 hr. Fluorescence intensity was measured using an Envision plate reader (PerkinElmer). […] Data were analysed using Base software and statistical cut-off analysis was used for ‘hit’ selection following a standard GSK protocol. To calculate the statistical cut-off, percentage growth inhibition was calculated per well according to the plate controls, these values were aggregated to calculate the robust mean and standard deviation (SD) of the distribution. The robust mean was calculated starting from the median and the MAD of the distribution with an iterative process that aimed to remove outliers. Once the mean and SD were calculated, all compounds above mean + 3 SD were selected as primary hits.
After the initial screen, we generated fresh samples of the primary compound hits and tested them in duplicate against S. flexneri 2457T at 10 μM to confirm activity. The confirmed hit list was narrowed by applying the following filters: a 30% cut-off value, absence of undesirable structural features (e.g. electrophiles, peroxides, and Michael acceptors) and reduced physicochemical risk (maximum five aromatic rings and PFI <8)([Leeson and Young, 2015]). […].

S. flexneri EG478 = assay: Solid medium test at 10 µM and dose-response MIC against MDR clinical isolate; format: cell-based, Shigella flexneri
Description: (§1) The confirmed hit list was narrowed by applying the following filters: a 30% cut-off value, absence of undesirable structural features (e.g. electrophiles, peroxides, and Michael acceptors) and reduced physicochemical risk (maximum five aromatic rings and PFI <8)([Leeson and Young, 2015]). […] Briefly, the selected bacteria were cultured on the Luria-Bertani agar overnight at 37 °C (Campylobacter isolates were grown in 2.5% Laked Horse Blood cation-adjusted Mueller Hinton medium (CAMHB, Sigma Aldrich) and incubated in microaerophilic conditions (10% CO2, 5% O2 and 85% N2) at 42 °C); colonies were added to sterile PBS to form 0.5 McFarland solutions. All chemical testing was performed at an initial concentration of 10 μM. Bacterial suspensions were evenly spread on Mueller-Hinton agar by sterile cotton swabs (Medical Wire – MWE). […] Plates were incubated overnight at 37 °C. The activity of the chemical was recorded as being active (yes) or non-active (no) for each of the tested chemicals.
(§2) MICs were evaluated using the micro dilution assay in Müller Hinton broth using 1 mM chemical stock solutions, and a final concentration of 5 × 10^5 CFU/mL bacteria. Twofold serial dilutions were prepared in 96-well plates at concentration ranging from 1 μM to 7.8 nM. 100 μL bacteria were added and incubated at 37 °C overnight; 10 μl of each solution was dropped onto Luria-Bertani agar and incubated overnight at 37 °C for the detection of bacterial growth. Results were interpreted as minimal concentration necessary to inhibit growth.

S. flexneri 2457T [1] = assay: Gnotobiotic piglet Shigella infection model, efficacy; format: in vivo; conditions: 6-day experiment
S. flexneri 2457T [2] = format: in vivo; conditions: mice, 39 mg/kg Tebipenem freebase subcutaneously, 24 hr after intraperitoneal infection
in vivo = conditions: pig, po, 50 mg/kg
Description: Blood was collected from the jugular veins while manually restraining the piglets. […] Blood samples were centrifuged at 2,200 x g for 10 min at 4 °C. Plasma was extracted and stored at –80 °C. Pharmacokinetic analysis was performed as above described.

S. sonnei 02–1181 = assay: Solid medium test at 10 µM and dose-response MIC against MDR clinical isolate; format: cell-based, Shigella sonnei
Description: as §1, §2

[3] = mice, Tebipenem PO 39 mg/kg, n = 3
[4] = test system: clinical isolates of Shigella (S. flexneri EG478, S. flexneri_01_0417, S. sonnei_02_1181); assay: Time-kill curve assays; format: cell-based, Shigella spp.
Description: Time-kill curve assays were performed in 20 mL volume in 50 mL tubes by culturing 5 × 10^5 CFU/mL Shigella spp. in Müller Hinton broth in the presence of four antimicrobial concentrations in doubling dilutions ranging from 0.5xMIC to 4xMIC. Bacteria were grown with agitation at 200 rpm at 37 °C and monitored over a time-course of 24 hr (0, 2, 4, 6, 8, and 24 hr). For each concentration and time point, 100 μL of bacterial culture were diluted and used to inoculate Luria-Bertani agar plates that were incubated at 37 °C overnight. Next, bacterial colonies were enumerated.

C[C@@H](O)[C@H]1C(=O)N2C(C(=O)O)=C(SC3CN(C4=NCCS4)C3)[C@H](C)[C@H]12 [Tebipenem]
MIC (Shigella flexneri 2457T; 2457T, read-out: estimated MIC of S. flexneri 2457T): 0.39 µM
IC90 (Shigella flexneri 2457T; ATCC700930): 0.01 µg/mL (≈ 0.0261 µM)
bactericidal activity (S. flexneri EG478; MDR clinical isolate S. flexneri EG478): greatest bactericidal activity
MIC range (S. flexneri EG478; range over S. flexneri EG478 and S. sonnei 02-1181): 0.08 to 0.15 µg/mL
weight gain vs vehicle-treated piglets (S. flexneri 2457T [1]): not statistically significant
reduction of organisms in the small intestine (S. flexneri 2457T [2]): 1.2 log
AUC(0-t) (in vivo): 32000 ng·h/mL
concentration at 6 hr (in vivo): 1000 ng/mL
bactericidal activity (S. sonnei 02–1181): greatest bactericidal activity
bioavailability [3]: 4 ± 1%
time kill, antibacterial activity ([4]; higher concentrations (2–4 x MIC), 24 hr): protracted antibacterial activity
time kill, population behaviour ([4]; lower concentrations (0.5–1 x MIC), after 6 hr exposure, all three isolates): Population rebounds occurred
